Holding throughout (format): physicochemical
Data set [1] can be described thus: Dynamic vapor sorption (DVS). To be noted: 25° C. The procedure: Dynamic vapor sorption quantification relates the mass of water absorbed and subsequently desorbed during the crystallization process. In order to define whether batch P1, P2 and P4 are hydrated polymorphs, DVS measurements were conducted (FIG. 9). A sample (13 to 14 mg) was placed on a Pt pan, and the sample was allowed to equilibrate at 25° C./50% r.h. before starting a pre-defined humidity program (1.0 hours 50%, from 50% r.h. to 95% r.h.: 5% r.h./hour, 10 hours at 95% r.h., from 95% r.h. to 0% r.h.: 5% r.h./hour, 10 hours at 0% r.h., from 0% r.h. to 50% r.h.: 5% r.h./hour, 1 hours at 50% r.h.

A short description of data set [2]: Measurement of the approximate solubility (solvent added in steps to the solid). To be noted: ethyl acetate/n-heptane 1:2 v/v, 23° C. (B′: solid form transformation into solid form A). The method, then: To determine the approximate solubility at room temperature, the solvent was added in steps to the solid material. After every addition, the sample was well stirred. The addition of solvent was continued until complete dissolution or until 15 ml of solvent was added.

Data set [3] is described as follows: Water solubility of solid forms A and B′ (suspension shaken, filtered, HPLC; residue by Raman). As to conditions: 22° C.; for Solid residue: Raman, rough estimate; for solubility: mean of two measurements (±standard deviation). The method, then:
During the following experiments: suspension equilibration, precipitation experiment, recrystallization, relative stability experiments and water solubility experiment, a filtration step was conducted. Centrifugal filter devices: Ultrafree-CL (0.22 la,m), Millipore; Centrifuge type or Eppendorf 5804R were used at a temperature of 22° C. and centrifugation program of 2 min 3000 rpm.
HPLC was used to analyse the purity of S-1. HP 1090M HPLC machine was used with the following conditions: • Column: Symmetry Shield RP18, 3.9×150 mm, 5 μm • Column temperature: 35° C. • Injection volume: 10 μL • Solvent: acetonitrile+water 1:1 v/v • Mobile phase A: 0.1% TFA-water • Mobile phase B: 0.1% TFA-acetonitrile • Flow rate: 1 mL/min. • Detection: UV at 271 nm • Run time: 21 min. • Retention time (S-1): 10.7 min.
Suspensions of the solid forms (25 or 50 mg in 3.5 or 7.0 ml bidistilled water) were shaken (800 rpm) and filtered after 0.5 h, 1.5 h, 4 h and 20 h. After filtration the solid residue was checked by Raman spectroscopy and the concentration in the clear solution was determined by HPLC.

Data set [4] can be described thus: Suspension equilibration experiments. The procedure: Suspension equilibration experiments were carried out with 81-128 mg of the compound. The suspensions were stirred with a magnetic stirrer. The samples obtained after filtration were air dried at ambient temperature for a short time only to prevent possible desolvation of labile hydrates or solvates.
Data set [5] can be described thus: Relative stability of polymorphic forms under dry conditions (heating, micronization). As to conditions: heating to 110° C. in the presence of D. The method, then:
(§1) Thermal analysis was carried out with a Perkin Elmer DSC7 with the following experimental conditions: 3 to 6 mg sample mass, closed gold sample pan, temperature range −50° C. to 120° C., heating rate 20 K/min. The samples were weighed in air or dry N2 atmosphere. Additional thermal analysis was conducted using a TA Instruments Q1000 DSC using hermetic aluminum pans under various conditions.
Thus forms A and B″ can be considered to be practically stable at ambient temperature. […] Micronization of the polymorph A particles under dry conditions also produced ˜25% conversion to B″.

Data set [6] in a line: Relative stability of polymorphic forms under humid conditions (storage, DSC). To be noted: 50° C./75% RH as well as ambient/75% RH, ambient/100% RH, 30° C./75% RH and 50° C./0% RH. The method, then:
as §1
Polymorph A stays stable in its A form for at least 7 days under storage conditions of ambient temperature/75% RH (Relative Humidity), ambient temperature/100% RH, 30° C./75% RH and 50° C./0% RH.
In fact, polymorph D in the presence of moisture acts as the seed for the crystallization process and drives the transformation of polymorphs A and B′ into D, similar to its role in seeding the A to D crystallization in dry conditions. […] The amount of polymorph D initially added to the sample is very small that it isn't detectable by the DSC with heating rate of 10° C./min. […] The transformation process is speeded up in FIG. 17G (b) by storing the sample in water at 50° C. […] Further work has shown that the A and B′ convert to D in the presence of moisture at lower temperatures also albeit at slower rates.

Data set [7] is described as follows: Relative stability of toluene solvate in toluene / solubility in toluene. The method, then:
Recrystallization of S-1 from a solvent/antisolvent system that uses toluene as the antisolvent produces the toluene solvate. Toluene solvate has a melting point near 100° C. with the enthalpy of melting 70±5 J/g.

Each structure is given as a SMILES string. Values joined by “and” are separate entries in the source; they are usually repeats but may differ in a detail not shown here. Equal entries are not always repeated. Marks after values point to notes of the source that are not given here.

As for `C[C@](O)(COc1ccc(C#N)cc1)C(=O)Nc1ccc(C#N)c(C(F)(F)F)c1` [Form S-1-P4, (S)-N-(4-cyano-3-(trifluoromethyl)phenyl)-3-(4-cyanophenoxy)-2-hydroxy-2-methylpropanamide], in data set [1], the “maximum water content at 94% r.h.” value is “r.h.: ~2.4%” and the “water content at 50% r.h.” value is on record as “water content at 50% r.h.: ~0.8%”.

With `C[C@](O)(COc1ccc(C#N)cc1)C(=O)Nc1ccc(C#N)c(C(F)(F)F)c1` [Form B′, (S)-N-(4-cyano-3-(trifluoromethyl)phenyl)-3-(4-cyanophenoxy)-2-hydroxy-2-methylpropanamide], the solubility in data set [2] was over 9 solid form mg/ml; in data set [3] (water, suspension equilibration time 0.5 h), 27.4 ± 0.9 mg/1000 ml; in data set [3] (water, suspension equilibration time 1.5 h), 27.3 ± 0.8 mg/1000 ml; in data set [3] (water, suspension equilibration time 1.5 h, listed as B′), 27.3±0.8 mg/1000 ml; in data set [3] (water, suspension equilibration time 4.0 h), 25.6 ± 0.1 mg/1000 ml; in data set [3] (water, suspension equilibration time 20 h), 26.7 ± 0.3 ^c) mg/1000 ml. For the same molecule, in data set [3] (stated as embodiment), the solubility in water is 20 to 30 µg/mL and 23 to 27 µg/mL. Besides, the Solid residue result in data set [3] (water, 0.5 h) is recorded as “B′”; in data set [3] (water, 1.5 h), “B′”; in data set [3] (water, 4.0 h), “B′”; in data set [3] (water, 20 h) it was “B′”. In addition, in data set [3] (water, 20 h suspension equilibration), the “pH of the solution” value is recorded as “d) pH of the solution: 8.7”. The Form produced entry is listed as “transformed into solid form A” in data set [4] (ethyl acetate + n-heptane 1:2 v/v 81/1.7 mg/ml, stirred 2 h/23° C.) and “transformed into solid form A” in data set [4] (ethyl acetate + n-pentane 1:2 v/v 101/1.0 mg/ml, stirred 22 h/23° C.). Besides, in data set [1] (listed as solid form B′), the “maximum water content at 94% r.h.” value is recorded as “approx. 2.4%”.

As for `C[C@](O)(COc1ccc(C#N)cc1)C(=O)Nc1ccc(C#N)c(C(F)(F)F)c1` [Form B″, (S)-N-(4-cyano-3-(trifluoromethyl)phenyl)-3-(4-cyanophenoxy)-2-hydroxy-2-methylpropanamide], the “solid form change on heating” value in data set [5] is reported as “rearrange into D”.

Consider `C[C@](O)(COc1ccc(C#N)cc1)C(=O)Nc1ccc(C#N)c(C(F)(F)F)c1` [Form S-1-P1, (S)-N-(4-cyano-3-(trifluoromethyl)phenyl)-3-(4-cyanophenoxy)-2-hydroxy-2-methylpropanamide], for which, in data set [1], the “maximum water content at 93% r.h.” value is 1.5% and the “water content at 50% r.h.” value is recorded as “water content at 50% r.h.: 0.4%”.

As for `C[C@](O)(COc1ccc(C#N)cc1)C(=O)Nc1ccc(C#N)c(C(F)(F)F)c1` [Form D, (S)-N-(4-cyano-3-(trifluoromethyl)phenyl)-3-(4-cyanophenoxy)-2-hydroxy-2-methylpropanamide], the entries for the “solid form stability on storage” value in data set [6] and in data set [6] (listed as Polymorph D) were “stable” and “remains stable”, respectively. Further, the “transformation in toluene suspension” value in data set [7] (sonication of the suspension for 10 minutes) was “partial transformation to the toluene solvate”; in data set [7] (suspension (50 mg/mL) in toluene for 4 days, both at ambient temperature and 50° C.) it was “no noticeable transformation from form D to the toluene solvate”.

In the case of `C[C@](O)(COc1ccc(C#N)cc1)C(=O)Nc1ccc(C#N)c(C(F)(F)F)c1` [Form S-1-P2, (S)-N-(4-cyano-3-(trifluoromethyl)phenyl)-3-(4-cyanophenoxy)-2-hydroxy-2-methylpropanamide], in data set [1], the “maximum water content at 95% r.h.” value stood at 0.6% and the “water content at 50% r.h.” value is “water content at 50% r.h.: 0.3%”.

As to `C[C@](O)(COc1ccc(C#N)cc1)C(=O)Nc1ccc(C#N)c(C(F)(F)F)c1` [Form S-1, (S)-N-(4-cyano-3-(trifluoromethyl)phenyl)-3-(4-cyanophenoxy)-2-hydroxy-2-methylpropanamide], in data set [7] (toluene, organic solvent or mixture), the solubility is under 2000 µg/mL.

These data come from patent US20240326697A1, “SOLID FORMS OF SELECTIVE ANDROGEN RECEPTOR MODULATORS” (priority 2007, published 2024).
